Literature values in patent publication US20070122442A1, “Triple-Action Pest Control Formulation and Method” (priority 2004, published 2007).

Test system: insects
Details: variety of insects

Q: Which “retention at which boric acid is known to be effective” value does the source give for OB(O)O [boric acid] here?
A: below 0.5%
